target: T1, human PD-L1 / human PD-1 interaction (Homo sapiens, UniProt Q9NZQ7); assay: ELISA of PD-1/PD-L1 interaction; assay type: binding
T1 construct: purchased R&D (PD-L1); ACRO Biosystems (PD-1, biotin)
How it was run: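 Plates coated with 1 μg/mL human PD-L1 and blocked with BSA; serially diluted (1:5) compounds plus biotinylated human PD-1 (0.3 μg/mL) incubated 1 h at 37° C. Bound PD-1 detected with streptavidin-HRP/TMB, absorbance at 450 nm.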

T1 sequence (Q9NZQ7 19-239 limits assumed): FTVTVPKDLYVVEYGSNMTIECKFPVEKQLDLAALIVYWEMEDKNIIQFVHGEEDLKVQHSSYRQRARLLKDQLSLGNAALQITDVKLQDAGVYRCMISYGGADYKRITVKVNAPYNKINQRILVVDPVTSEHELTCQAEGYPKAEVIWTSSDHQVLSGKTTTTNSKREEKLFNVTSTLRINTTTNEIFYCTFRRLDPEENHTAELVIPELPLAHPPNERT

IC50 [nM] | SMILES
< 5 | Cc1c(OCCCN2CCCCC2)cccc1-c1cccc2c1CC[C@@H]2Oc1cc(OCc2cc(C#N)cc(C#N)c2)c(CNC[C@H]2CCC(=O)N2)cc1Cl
< 5 | Cc1c(OCCCN2CCC(F)CC2)cccc1-c1cccc2c1CC[C@@H]2Oc1cc(OCc2cc(C#N)cc(C#N)c2)c(CN[C@@H]2CCC[C@@H]2O)cc1Cl
< 5 | Cc1c(OCCCN2CCC(F)CC2)cccc1-c1cccc2c1CC[C@@H]2Oc1cc(OCc2cc(C#N)cc(C#N)c2)c(CN[C@@H]2CCOC[C@H]2O)cc1Cl
< 5 | Cc1c(OCCCN2CCC(F)CC2)cccc1-c1cccc2c1CC[C@@H]2Oc1cc(OCc2cc(C#N)cc(C#N)c2)c(CN[C@@H]2CCC[C@H]2O)cc1Cl
< 5 | Cc1c(OCCCN2CCC(F)CC2)cccc1-c1cccc2c1CC[C@@H]2Oc1cc(OCc2cc(C#N)cc(C#N)c2)c(CN[C@H]2CCC[C@@H]2O)cc1Cl
< 5 | Cc1c(OCCCN2CCC(F)CC2)cccc1-c1cccc2c1CC[C@@H]2Oc1cc(OCc2cc(C#N)cc(C#N)c2)c(CN[C@H]2CCC[C@H]2O)cc1Cl
< 5 | Cc1c(OCCCN2CCC(F)CC2)cccc1-c1cccc2c1CC[C@@H]2Oc1cc(OCc2cc(C#N)cc(C#N)c2)c(CN[C@H]2CCOC[C@H]2O)cc1Cl
< 5 | Cc1c(OCCCN2CC3(CCC3)C2)cccc1-c1cccc2c1CC[C@@H]2Oc1cc(OCc2cc(C#N)cc(C#N)c2)c(CNC[C@@H]2CCC(=O)N2)cc1Cl
< 5 | Cc1c(OCCCN2CCC(C)CC2)cccc1-c1cccc2c1CC[C@@H]2Oc1cc(OCc2cc(C#N)cc(C#N)c2)c(CNC[C@H]2CCC(=O)N2)cc1Cl
< 5 | Cc1c(OCCCN2CCC(C)CC2)cccc1-c1cccc2c1CC[C@@H]2Oc1cc(OCc2cc(C#N)cc(C#N)c2)c(CNC[C@@H]2CCC(=O)N2)cc1Cl
< 5 | Cc1c(OCCCN2CC3(CC(O)C3)C2)cccc1-c1cccc2c1CC[C@@H]2Oc1cc(OCc2cc(C#N)cc(C#N)c2)c(CNC[C@H]2CCC(=O)N2)cc1Cl
< 5 | Cc1c(OCCCN2CC3(CC(F)C3)C2)cccc1-c1cccc2c1CC[C@@H]2Oc1cc(OCc2cc(C#N)cc(C#N)c2)c(CN[C@H]2CCC(=O)NC2)cc1Cl
< 5 | Cc1c(OCCCN2CCC(F)CC2)cccc1-c1cccc2c1CC[C@@H]2Oc1cc(OCc2cc(C#N)cc(C#N)c2)c(CN[C@@H]2CCC(=O)NC2)cc1Cl
< 5 | Cc1c(OCCCN2CCC(C)(O)CC2)cccc1-c1cccc2c1CC[C@@H]2Oc1cc(OCc2cc(C#N)cc(C#N)c2)c(CNC[C@@H]2CCC(=O)N2)cc1Cl
< 5 | Cc1c(OCCCN2CCCC[C@H]2C)cccc1-c1cccc2c1CC[C@@H]2Oc1cc(OCc2cc(C#N)cc(C#N)c2)c(CNC[C@H]2CCC(=O)N2)cc1Cl
< 5 | Cc1c(OCCCN2CCC2)cccc1-c1cccc2c1CC[C@@H]2Oc1cc(OCc2cc(C#N)cc(C#N)c2)c(CNC[C@H]2CCC(=O)N2)cc1Cl
< 5 | Cc1c(OCCCN2CCC(O)CC2(C)C)cccc1-c1cccc2c1CC[C@@H]2Oc1cc(OCc2cc(C#N)cc(C#N)c2)c(CN[C@H]2CCC(=O)NC2)cc1Cl (stereo partly shown)
< 5 | Cc1c(OCCCN2CCCC2)cccc1-c1cccc2c1CC[C@@H]2Oc1cc(OCc2cc(C#N)cc(C#N)c2)c(CN[C@H]2CCC(=O)NC2)cc1Cl

More lines, now with the values behind:

SMILES | IC50 [nM]
Cc1c(OCCCN2CCC(F)(F)CC2)cccc1-c1cccc2c1CC[C@@H]2Oc1cc(OCc2cncc(C#N)c2)c(CN[C@H](C(=O)O)[C@@H](C)O)cc1Cl | 5 to 500
Cc1c(OCCCN2CCC(CO)CC2)cccc1-c1cccc2c1CC[C@@H]2Oc1cc(OCc2cncc(C#N)c2)c(CN[C@H](C(=O)O)[C@@H](C)O)cc1Cl | < 5
Cc1c(OCCCN2CC(O)C2)cccc1-c1cccc2c1CC[C@@H]2Oc1cc(OCc2cncc(C#N)c2)c(CN[C@H](C(=O)O)[C@@H](C)O)cc1Cl | < 5
C[C@@](CO)(NCc1cc(Cl)c(O[C@H]2CCc3c(-c4cccc(OCCCN5CCC(O)CC5)c4Cl)cccc32)cc1OCc1cncc(C#N)c1)C(=O)O | < 5
N#Cc1cncc(COc2cc(O[C@H]3CCc4c(-c5cccc(OCCCN6CCC(O)CC6)c5Cl)cccc43)c(Cl)cc2CN[C@@H](CO)C(=O)O)c1 | < 5
C[C@@H](O)[C@H](NCc1cc(Cl)c(O[C@H]2CCc3c(-c4cccc(OCCCN5CCC(O)CC5)c4Cl)cccc32)cc1OCc1cncc(C#N)c1)C(=O)O | < 5
Cc1c(OCCCN2CCC(O)CC2)cccc1-c1cccc2c1CC[C@@H]2Oc1cc(OCc2cncc(C#N)c2)c(CN[C@@](C)(CO)C(=O)O)cc1Cl | < 5
Cc1c(OCCCN2CCC(O)CC2)cccc1-c1cccc2c1CC[C@@H]2Oc1cc(OCc2cncc(C#N)c2)c(CN[C@@H]2CCCC[C@@H]2O)cc1Cl | < 5
Cc1c(OCCCN2CC3(CC(O)C3)C2)cccc1-c1cccc2c1CC[C@@H]2Oc1cc(OCc2cncc(C#N)c2)c(CN[C@H](C(=O)O)[C@@H](C)O)cc1Cl | < 5
N#Cc1cncc(COc2cc(O[C@H]3CCc4c(-c5cccc(OCCCN6CC7(CC(O)C7)C6)c5Cl)cccc43)c(Cl)cc2CN[C@H]2CCC[C@H]2O)c1 | < 5
N#Cc1cncc(COc2cc(O[C@H]3CCc4c(-c5cccc(OCCCN6CC7(CC(O)C7)C6)c5Cl)cccc43)c(Cl)cc2CN[C@H]2CCC[C@@H]2O)c1 | < 5
N#Cc1cc(C#N)cc(COc2cc(O[C@H]3CCc4c(-c5cccc(OCCCN6CCC(F)CC6)c5Cl)cccc43)c(Cl)cc2CNC[C@H]2CCC(=O)N2)c1 | < 5
N#Cc1cncc(COc2cc(O[C@H]3CCc4c(-c5cccc(OCCCN6CC7(CC(F)C7)C6)c5Cl)cccc43)c(Cl)cc2CN[C@@H]2CCC[C@@H]2O)c1 | < 5
N#Cc1cncc(COc2cc(O[C@H]3CCc4c(-c5cccc(OCCCN6CC7(CC(F)C7)C6)c5Cl)cccc43)c(Cl)cc2CN[C@@H]2CCC[C@H]2O)c1 | < 5
Cc1c(OCCCN2CCCCC2)cccc1-c1cccc2c1CC[C@@H]2Oc1cc(OCc2cc(C#N)cc(C#N)c2)c(CN[C@@H]2CCCC[C@@H]2O)cc1Cl | < 5
N#Cc1cncc(COc2cc(O[C@H]3CCc4c(-c5cccc(OCCCN6CCC(F)CC6)c5Cl)cccc43)c(Cl)cc2CN2CC3(C2)NC(=O)NC3=O)c1 | < 5
N#Cc1cncc(COc2cc(O[C@H]3CCc4c(-c5cccc(OCCCN6CCC(F)CC6)c5Cl)cccc43)c(Cl)cc2CN[C@H]2CC[C@@H]2O)c1 | < 5
N#Cc1cncc(COc2cc(O[C@H]3CCc4c(-c5cccc(OCCCN6CC7(CC(F)C7)C6)c5Cl)cccc43)c(Cl)cc2CN[C@H]2CCC[C@H]2O)c1 | < 5
N#Cc1cncc(COc2cc(O[C@H]3CCc4c(-c5cccc(OCCCN6CCC6)c5Cl)cccc43)c(Cl)cc2CN[C@@H]2CCCC[C@@H]2O)c1 | < 5
N#Cc1cncc(COc2cc(O[C@H]3CCc4c(-c5cccc(OCCCN6CC7(CC(F)C7)C6)c5Cl)cccc43)c(Cl)cc2CN[C@H]2CCC[C@@H]2O)c1 | < 5

SMILES | IC50 [nM]
N#Cc1cncc(COc2cc(O[C@H]3CCc4c(-c5cccc(OCCCN6CCC6)c5Cl)cccc43)c(Cl)cc2CNC[C@H]2CCC(=O)N2)c1 | < 5
N#Cc1cncc(COc2cc(O[C@H]3CCc4c(-c5cccc(OCCCN6CC7(CC(F)C7)C6)c5Cl)cccc43)c(Cl)cc2CNC[C@@H]2CCC(=O)N2)c1 | < 5
N#Cc1cncc(COc2cc(O[C@H]3CCc4c(-c5cccc(OCCCN6CC7(CC(F)C7)C6)c5Cl)cccc43)c(Cl)cc2CNC[C@H]2CCC(=O)N2)c1 | < 5
CN1CCC(COc2cccc(-c3cccc4c3CC[C@@H]4Oc3cc(OCc4cncc(C#N)c4)c(CN[C@@H]4CCCC[C@@H]4O)cc3Cl)c2Cl)C1 (stereo partly shown) | < 5
CN1CCC(COc2cccc(-c3cccc4c3CC[C@@H]4Oc3cc(OCc4cncc(C#N)c4)c(CNC[C@H]4CCC(=O)N4)cc3Cl)c2Cl)C1 (stereo partly shown) | < 5
N#Cc1cncc(COc2cc(O[C@H]3CCc4c(-c5cccc(OCCCN6CC7(C6)CC(F)(F)C7)c5Cl)cccc43)c(Cl)cc2CN[C@@H]2CCC[C@@H]2O)c1 | < 5
N#Cc1cncc(COc2cc(O[C@H]3CCc4c(-c5cccc(OCCCN6CC7(C6)CC(F)(F)C7)c5Cl)cccc43)c(Cl)cc2CN[C@@H]2CCC[C@H]2O)c1 | < 5
N#Cc1cncc(COc2cc(O[C@H]3CCc4c(-c5cccc(OCCCN6CC7(C6)CC(F)(F)C7)c5Cl)cccc43)c(Cl)cc2CN[C@H]2CCC[C@H]2O)c1 | < 5
N#Cc1cncc(COc2cc(O[C@H]3CCc4c(-c5cccc(OCCCN6CC7(C6)CC(F)(F)C7)c5Cl)cccc43)c(Cl)cc2CN[C@H]2CCC[C@@H]2O)c1 | < 5
Cc1c(OCCCN2CCC(C)(F)CC2)cccc1-c1cccc2c1CC[C@@H]2Oc1cc(OCc2cncc(C#N)c2)c(CNC[C@@H]2CCC(=O)N2)cc1Cl | < 5
N#Cc1cncc(COc2cc(O[C@H]3CCc4c(-c5cccc(OCCCN6CCC(F)CC6)c5Cl)cccc43)c(Cl)cc2CN[C@@H]2CC[C@H]2O)c1 | < 5
N#Cc1cncc(COc2cc(O[C@H]3CCc4c(-c5cccc(OCCCN6CC7(CC(F)C7)C6)c5Cl)cccc43)c(Cl)cc2CN[C@H]2CC[C@@H]2O)c1 | < 5
N#Cc1cncc(COc2cc(O[C@H]3CCc4c(-c5cccc(OCCCN6CC7(CC(F)C7)C6)c5Cl)cccc43)c(Cl)cc2CN[C@@H]2CC[C@H]2O)c1 | < 5
N#Cc1cncc(COc2cc(O[C@H]3CCc4c(-c5cccc(OCCCN6CC7(C6)CC(F)(F)C7)c5Cl)cccc43)c(Cl)cc2CN[C@@H]2CC[C@H]2O)c1 | < 5
Cc1c(OCCCN2CCCCC2)cccc1-c1cccc2c1CC[C@@H]2Oc1cc(OCc2cncc(C#N)c2)c(CNC[C@H]2CCC(=O)N2)cc1Cl | < 5
Cc1c(OCCCN2CCCCC2)cccc1-c1cccc2c1CC[C@@H]2Oc1cc(OCc2cncc(C#N)c2)c(CNC[C@@H]2CCC(=O)N2)cc1Cl | < 5
N#Cc1cncc(COc2cc(O[C@H]3CCc4c(-c5cccc(OCCCN6CCC6)c5Cl)cccc43)c(Cl)cc2CNC[C@@H]2CCC(=O)N2)c1 | < 5
CN1CCC(COc2cccc(-c3cccc4c3CC[C@@H]4Oc3cc(OCc4cncc(C#N)c4)c(CNC[C@@H]4CCC(=O)N4)cc3Cl)c2Cl)C1 (stereo partly shown) | < 5
CC1(F)CCN(CCCOc2cccc(-c3cccc4c3CC[C@@H]4Oc3cc(OCc4cncc(C#N)c4)c(CN[C@H]4CCC(=O)NC4)cc3Cl)c2Cl)CC1 | 5 to 500
CC1(F)CCN(CCCOc2cccc(-c3cccc4c3CC[C@@H]4Oc3cc(OCc4cncc(C#N)c4)c(CNC[C@@H]4CCC(=O)N4)cc3Cl)c2Cl)CC1 | < 5

Source: US20210236476A1, “METHODS OF TREATING CANCER WITH SMALL MOLECULE PD-L1 INHIBITORS” (CHEMOCENTRYX, INC., priority 2018, published 2021)
